Among the test systems are A549 NSCLC; EKVX NSCLC; HL-60(TB) leukemia; HOP-62 NSCLC; NCI-H460 lung; NCI-H522 lung; RXF 393 renal; SNB-75 CNS; TK-10 renal; UO-31 renal.
Experiment in all cases: NCI-60 cell line screen, 48 h

The structures appear in SMILES notation.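 Five compound concentrations were applied to cells in 96-well plates for 48 hours; endpoints were derived by simple linear interpolation of the resulting dose-response curve. The concentration for 50% growth inhibition is given as GI50. TGI: concentration producing complete growth inhibition.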

Regarding `CC/C=C\C[C@H]1C/C=C2/C(=O)C=C[C@H]2C/C=C\CCCC(=O)O1`, the GI50 in the assay on A549 NSCLC is 2.66 µM; in the assay with EKVX NSCLC, 4.89 µM; in the assay on HL-60(TB) leukemia it was 1.74 µM; in the assay on HOP-62 NSCLC, 2.09 µM; in the assay on NCI-H460 lung, 2.92 µM; with NCI-H522 lung it was 1.98 µM. The GI50 with RXF 393 renal is 1.91 µM; in the assay with SNB-75 CNS, 1.56 µM; in the assay on TK-10 renal, 2.54 µM; with UO-31 renal, 4.87 µM. Besides, the TGI in the assay on A549 NSCLC is 10.3 µM; with EKVX NSCLC it was 15.7 µM; with HL-60(TB) leukemia, 12 µM; in the assay on HOP-62 NSCLC, 7.72 µM; in the assay on NCI-H460 lung it was 14.5 µM; with NCI-H522 lung it was 7.21 µM. Further, the TGI amounted to 8.01 µM in the assay on RXF 393 renal, 8.74 µM in the assay with SNB-75 CNS, 8.01 µM in the assay on TK-10 renal and 11.2 µM in the assay on UO-31 renal.
For the molecule `Cc1cc(F)c(C(=O)Nc2cccc(-c3nncn3C(C)C)n2)cc1-n1cnc(C2CC2)c1`, the GI50 with A549 NSCLC is 15.2 µM; with EKVX NSCLC it was 13.1 µM; with HL-60(TB) leukemia, 16.2 µM; in the assay with HOP-62 NSCLC it was 16.6 µM; in the assay with NCI-H460 lung, 14.5 µM; with NCI-H522 lung, 8.56 µM. The GI50 in the assay with RXF 393 renal is 20.6 µM; in the assay on SNB-75 CNS, 10.3 µM; in the assay with TK-10 renal it was 8.12 µM; with UO-31 renal it was 3.05 µM. For the same molecule, the TGI in the assay on A549 NSCLC was determined as 74 µM; with EKVX NSCLC, 52.3 µM; in the assay with HL-60(TB) leukemia, 45.3 µM; in the assay on HOP-62 NSCLC it was 58.8 µM; in the assay with NCI-H460 lung, 96.4 µM; in the assay with NCI-H522 lung it was 44.1 µM. Also, the TGI came to 49.1 µM with RXF 393 renal, 64.3 µM in the assay on SNB-75 CNS, 92.5 µM in the assay with TK-10 renal and 23.7 µM in the assay with UO-31 renal.
With `CNC(=O)c1cc(Oc2ccc3nc(NC(=O)Nc4ccc(CN5CCOCC5)c(C(F)(F)F)c4)sc3c2)ccn1`, the GI50 is 2.15 µM in the assay with A549 NSCLC; 2.1 µM in the assay on EKVX NSCLC; 2.7 µM in the assay with HL-60(TB) leukemia; 2.82 µM with HOP-62 NSCLC; 2.01 µM with NCI-H460 lung; 1.97 µM in the assay with NCI-H522 lung. Also, the GI50 in the assay with RXF 393 renal is 1.81 µM; with SNB-75 CNS, 1.74 µM; with TK-10 renal, 4.45 µM; with UO-31 renal it was 1.65 µM. The TGI in the assay with A549 NSCLC amounted to 5.86 µM; in the assay on EKVX NSCLC, 7.55 µM; with HL-60(TB) leukemia it was 7.41 µM; with HOP-62 NSCLC it was 10.1 µM; in the assay with NCI-H460 lung, 4.33 µM; in the assay with NCI-H522 lung, 8.36 µM. The TGI in the assay with RXF 393 renal turned out to be 4.03 µM; with SNB-75 CNS, 4.95 µM; in the assay on TK-10 renal, 14.7 µM; in the assay with UO-31 renal, 3.94 µM.
Regarding `NC1=NN(c2ccccc2)C(=O)C1C(=O)C(=O)Nc1ccc(Cl)cc1` (stereo not given), the TGI in the assay on A549 NSCLC, in the assay on EKVX NSCLC, in the assay with HL-60(TB) leukemia, in the assay on HOP-62 NSCLC, with NCI-H460 lung and with NCI-H522 lung was greater than 100 µM each time. Also, the TGI in the assay with RXF 393 renal, in the assay on SNB-75 CNS, in the assay with TK-10 renal and with UO-31 renal was greater than 100 µM throughout.
In the case of `O/N=C1/CCC/C1=C\c1ccccc1`, the TGI in the assay with A549 NSCLC, in the assay with EKVX NSCLC, in the assay with HL-60(TB) leukemia, with HOP-62 NSCLC, with NCI-H460 lung and in the assay on NCI-H522 lung was greater than 100 µM in each case. Moreover, the TGI with RXF 393 renal was greater than 100 µM; in the assay on SNB-75 CNS, 44.8 µM; in the assay on TK-10 renal, greater than 100 µM; in the assay on UO-31 renal, greater than 100 µM.
On to `CC1(C)OB(c2ccc(N(CCOS(C)(=O)=O)CCOS(C)(=O)=O)cc2)OC1(C)C`, for which the GI50 with A549 NSCLC is 15.1 µM; in the assay on EKVX NSCLC, 23.4 µM; in the assay with HL-60(TB) leukemia, 2.85 µM; with HOP-62 NSCLC, 7.92 µM; in the assay on NCI-H460 lung it was 12.6 µM; with NCI-H522 lung, 14.3 µM. Moreover, the GI50 with RXF 393 renal is 24.6 µM; in the assay on SNB-75 CNS, 22.1 µM; in the assay on TK-10 renal, 18.9 µM; with UO-31 renal, 16.5 µM. Also, the TGI is greater than 85.8 µM with A549 NSCLC; 58.7 µM in the assay with EKVX NSCLC; 39.3 µM in the assay on HL-60(TB) leukemia; 23.4 µM with HOP-62 NSCLC; greater than 100 µM in the assay with NCI-H460 lung; 74.5 µM in the assay with NCI-H522 lung. The TGI was greater than 67.4 µM with RXF 393 renal, 49.3 µM with SNB-75 CNS, 56.4 µM in the assay on TK-10 renal and greater than 64.6 µM in the assay with UO-31 renal.
On to `Cc1cc(=O)oc2c(C3=NN(C=O)C(c4ccccc4)C3)c(O)ccc12` (stereo not given), for which the TGI was greater than 32.8 µM with A549 NSCLC; greater than 100 µM with EKVX NSCLC; greater than 100 µM in the assay on HL-60(TB) leukemia; 91.4 µM in the assay with HOP-62 NSCLC; greater than 100 µM in the assay on NCI-H460 lung; greater than 93.6 µM in the assay on NCI-H522 lung. Besides, the TGI in the assay on RXF 393 renal was greater than 80.5 µM; with SNB-75 CNS, 17.2 µM; in the assay on TK-10 renal, 87.9 µM; in the assay on UO-31 renal it was greater than 100 µM.
Consider `CCCCCCCCCCC(=O)CCCCCCC(=O)O`, for which the TGI was 32.2 µM in the assay with A549 NSCLC; greater than 100 µM with EKVX NSCLC; 18.7 µM in the assay on HL-60(TB) leukemia; 68.8 µM in the assay on HOP-62 NSCLC; 30.9 µM in the assay with NCI-H460 lung; 50.5 µM in the assay with NCI-H522 lung. The TGI in the assay on RXF 393 renal was 91.5 µM; in the assay on SNB-75 CNS it was greater than 100 µM; in the assay with TK-10 renal, greater than 100 µM; in the assay on UO-31 renal, 71.9 µM.
Take `COc1ccc2[nH]c(Cl)c(/C=C3/C(=O)Nc4ccccc43)c2c1`: the GI50 with A549 NSCLC was 1.2 µM; in the assay on EKVX NSCLC, 2.07 µM; with HL-60(TB) leukemia it was 0.449 µM; in the assay on HOP-62 NSCLC, 0.523 µM; in the assay with NCI-H460 lung, 1.25 µM; in the assay on NCI-H522 lung, 0.381 µM. Moreover, the GI50 in the assay on RXF 393 renal was 0.381 µM; in the assay on SNB-75 CNS, 0.252 µM; in the assay with TK-10 renal, 1.06 µM; with UO-31 renal, 0.878 µM. The TGI was 5.36 µM in the assay with A549 NSCLC; 3.96 µM in the assay on EKVX NSCLC; 2.84 µM with HL-60(TB) leukemia; 1.27 µM in the assay with HOP-62 NSCLC; greater than 34.8 µM with NCI-H460 lung; 1.87 µM in the assay with NCI-H522 lung. For the same molecule, the TGI with RXF 393 renal was found to be 6.92 µM; in the assay on SNB-75 CNS, 0.659 µM; in the assay on TK-10 renal it was 8.74 µM; in the assay with UO-31 renal, 9.96 µM.

Values taken from PubChem BioAssay (NCI).
